Measurements reported in patent publication US7988972B2, “Immunoreactive peptides from Epstein-Barr virus” (Ortho-Clinical Diagnostics, Inc., priority 1993, dated 2011).

Assays:
[1] = tested on: peripheral blood lymphocytes (PBL); experiment: Proliferation assay of peripheral blood lymphocytes (3H-thymidine incorporation); assay type: cell-based, human; conditions: for proliferation response: PBL from 3 anti-VCA-positive anti-EA-antibody-negative individuals; for 3H-thymidine Incorporation (cpm + S.D.) / S.I. (stimulation index): PBL from anti-VCA-positive, anti-EA-positive donor, 5 days
Method: Proliferation assays. T-cell proliferation assays using the native p17 or p50 polypeptide or the synthetic peptides were performed as previously described in detail (Pothen et al., Int. J. Cancer, 49:656-660, 1991). Briefly, peripheral blood lymphocytes (PBLO from sero-positive donors were isolated on FICOLL-HYPAQUE gradients, washed and resuspended in RPMI 1640 media containing 10% heat-inactivated human A^+ serum from a sero-negative donor. Cells (1×10^5 per 0.1 ml) were then added to each well in 96-well, round-bottomed tissue culture plates (Costar, Cambridge, Mass.). The different antigen preparations were added to triplicate wells in 0.1 ml volumes and the plates were incubated at 37° C. for 5 days. ^3H-thymidine (5 Ci per mM) was added at a concentration of 1 μCi per well over the last 4 hours of culture. The cells were then harvested with a multichannel sample harvester and ^3H-thymidine incorporation was determined using a Beckman Model LS 3801 liquid scintillation counter. Stimulation indices for the test antigens were calculated by dividing the average counts per minute (CPMO for the test antigens by the average CPM of the medium control wells.
PBL from asymptomatic EBV-infected individuals were tested for response to any of the three p17 synthetic peptides (Table 1) by a proliferation assay using lymphocytes previously shown to proliferate in the presence of native p17 (Pothen et al., Int. J. Cancer, 49:656-660, 1991). Different concentrations of the synthetic peptides were incubated with the PBL for 5 days and then proliferation was assayed by the incorporation of ^3H-thymidine. The native p17 purified from activated P3HR-1 cells gave a S.I. of 15.8 in this experiment. […] Neither of the other synthetic peptides induced a proliferation response at the concentrations tested.
PBL from 3 anti-VCA-positive anti-EA-antibody-negative individuals were also examined in the proliferation assay with the three synthetic peptides. Again, all 3 PBL preparations responded to the highest concentrations of p17.1 with S.I.'s ranging from 3.5-11. Two of the preparations (FIG. 2A,C) also proliferated in the presence of lower concentrations of antigen with S.I.'s of 3 and 5 respectively. […] These experiments established that T-lymphocytes from EBV-infected individuals, irrespective of the presence of antibody to EA, recognized a dominant epitope on p17.

[2] = tested on: anti-EA antibodies in human sera; experiment: ELISA, serological reactivity of human sera with p17 synthetic peptides; assay type: binding; conditions: for share of anti-EA-positive sera that reacted: 87 anti-EA antibody-positive sera (titer>160), 2 μg peptide per well; for No. Positive/No. Tested / No. Positive/No. Tested (%): sera 1:10
Method: (§1) ELISA. The ELISA for measuring specific antibodies to p17, p50 or to the synthetic peptides was performed as previously described in detail (Luka et al., J. Immunol. Methods, 67:145-156, 1984). Aliquots of different antigen concentrations were diluted in 0.5M Na2CO3 buffer, pH 9.5, added to wells in polystyrene microtiter plates (Linbro) and the plates incubated overnight at 4° C. Following this incubation period, the plates were washed 5× with Tris-HCl, pH 7.4, containing 0.05% Tween 20, 50 mM NaCl and 100 mg per liter albumin (Sigma) and dried for 20 minutes at room temperature. The plates were screened with different anti-EA-R or EA-D antibody positive human sera and the monoclonal antibody to p17 or p50 to identify the optimal concentration of antigen to be used in the serological studies. Alkaline-phosphatase-labelled goat anti-human IgG (Sigma) or goat anti-mouse IgG (Sigma) was used as the indicator system.
(§2) For the testing of human sera for antibodies to native p17, p50 or to the synthetic peptides, sera were diluted 1:10 in ELISA buffer, added in 0.1 ml volumes to wells coated with optimal concentrations of antigen and the plates were incubated for 60 minutes at room temperature. After 4 washes with ELISA buffer, 100 μl of alkaline phosphatase-labelled goat anti-human IgG in ELISA buffer were added to each well and the plates were incubated at room temperature for 1 hour. Following four more washes in buffer, the enzyme reaction was performed by dissolving 1 mg per ml of Sigma alkaline phosphatase substrate in 1M diethanolamine buffer, pH 10.4, containing 1 mM MgCl2 and 0.1 mM ZnCl2, and 100 μl of the mixture was then added to each well. The reaction was allowed to proceed for 30 minutes at 37° C. and then the plates were screened directly with a microplate reader, TITERTEK MULTISKAN MC (Flow), at 420 nm. Readings above 0.1 which was 2× the background noted with antibody-negative sera were considered positive reactions.
Studies were designed to determine the serological reactivity with the p17 synthetic epitopes. For this purpose, 87 anti-EA antibody-positive sera (titer>160) were tested in the ELISA against optimal pre-determined concentrations (2 μg per well) of the p17 synthetic peptides. The sera were obtained from 28 patients with African Burkift's lymphoma (ABL) collected during the Ghanian Burkitt Tumor Project, and from 28 North American patients with intermediate large cell, or high grade non-Hodgkin's lymphoma (NANHL). The donors included both HIV-positive and HIV-negative individuals. In addition, sera from 31 North American nasopharyngeal carcinoma (NANPC) patients were examined in this study (Pearson, G. R., et al., Cancer, 51:260-268, 1983). To validate the EA specificity of the serological reactions, the results with these sera were compared with results with 23 VCA and EA antibody-negative sera and 30 VCA-antibody-positive, EA-antibody negative sera. In contrast to the T-cell proliferation results, all three synthetic peptides reacted with the EA antibody-positive sera to varying degrees with p17.1 again being the dominant epitope. Approximately 60% of the anti-EA-positive sera reacted with p17.1, 48% with p17.2 and 23% with p17.3.
Seventy-one percent of the sera from ABL patients and 93% of the sera from patients with NANHL reacted with p17.1 as opposed to 23% of the sera from North American patients with NPC.

[3] = tested on: EA reactive antibody (IgG) in infectious mononucleosis (IM) sera; experiment: ELISA, EA peptides with EBV infectious mononucleosis sera; assay type: binding, human; conditions: EA positive EBV IM acute serum
Method: as §1, §2
When the entire 50.10 peptide was tested with 1M sera, 24/32 or 75% of the sera contained EA-D reactive antibody (IgG) (Table 4).
Serological reactivity of EA peptides p17.1 and p50.1 which contained additional amino acids on their amino and carboxy termini was tested on EBV IM acute sera which was EA positive. The ELISA results shown in Table 5 indicate that the additional amino acids improved reactivity for both EA peptides.
Immunofluorescence assays (IFA) were performed as described by Henle, et al. (Int. J. Cancer, 8:272-282, 1971). Western blot analysis was done by methods commonly used in the art (See for example, Coligan, et al., Current Protocols in Immunology, Wiley Interscience, 1991, Unit 12). Samples of EBV-infected cell lysates (P3HR-1) were tested with human whole antiserum from positive humans (Pearson, et al., Virology, 160:151-161, 1987). A comparison was made between EA serology by IFA, using the EA-D 50.1 peptide antisera, and ELISA serology using 50.1 peptide (see Example 2).

[4] = serum donors: Burkitt's lymphoma (African), EA titers >160
[5] = serum donors: Lymphoma (total), EA titers >160
[6] = serum donors: Nasopharyngeal carcinoma (North American), EA titers >160
[7] = serum donors: Non-Hodgkin's lymphoma (North American), EA titers >160
[8] = serum donors: Normal (VCA + EA-)
[9] = serum donors: Normal (VCA − EA-)

HQQGGWSTLIEDNIP [p17.3, synthetic peptide from 17 Kd early antigen (EA-R) region of EBV]
proliferation response [1]: None of these PBL preparations proliferated | 3H-thymidine Incorporation (cpm + S.D.) ([1]; 3.12 μg/ml): 194 ± 65 cpm | S.I. (stimulation index) ([1]; 3.12 μg/ml): 1.3 | 3H-thymidine Incorporation (cpm + S.D.) ([1]; 12.5 μg/ml): 132 ± 3 cpm | S.I. (stimulation index) ([1]; 12.5 μg/ml): 0 | 3H-thymidine Incorporation (cpm + S.D.) ([1]; 50 μg/ml): 190 ± 47 cpm | share of anti-EA-positive sera that reacted [2]: 23% | No. Positive/No. Tested [2, 4]: 9/28 | No. Positive/No. Tested (%) [2, 4]: 32% | No. Positive/No. Tested [2, 5]: 16/56 | No. Positive/No. Tested (%) [2, 5]: 29% | No. Positive/No. Tested [2, 6]: 4/31 | No. Positive/No. Tested (%) [2, 6]: 13% | No. Positive/No. Tested [2, 7]: 7/28 | No. Positive/No. Tested (%) [2, 7]: 25% | No. Positive/No. Tested [2, 8]: 0/30 | No. Positive/No. Tested (%) [2, 8]: 0% | No. Positive/No. Tested [2, 9]: 0/23

GMLEASEGLDGWIHQ [p17.2, synthetic peptide from 17 Kd early antigen (EA-R) region of EBV]
proliferation response [1]: None of these PBL preparations proliferated | 3H-thymidine Incorporation (cpm + S.D.) ([1]; 3.12 μg/ml): 157 ± 23 cpm | S.I. (stimulation index) ([1]; 3.12 μg/ml): 1.1 | 3H-thymidine Incorporation (cpm + S.D.) ([1]; 12.5 μg/ml): 278 ± 58 cpm | S.I. (stimulation index) ([1]; 12.5 μg/ml): 1.9 | 3H-thymidine Incorporation (cpm + S.D.) ([1]; 50 μg/ml): 277 ± 175 cpm | share of anti-EA-positive sera that reacted [2]: 48% | No. Positive/No. Tested [2, 4]: 13/28 | No. Positive/No. Tested (%) [2, 4]: 46% | No. Positive/No. Tested [2, 5]: 36/56 | No. Positive/No. Tested (%) [2, 5]: 64% | No. Positive/No. Tested [2, 6]: 6/31 | No. Positive/No. Tested (%) [2, 6]: 19% | No. Positive/No. Tested [2, 7]: 23/28 | No. Positive/No. Tested (%) [2, 7]: 82% | No. Positive/No. Tested [2, 8]: 0/30 | No. Positive/No. Tested (%) [2, 8]: 0% | No. Positive/No. Tested [2, 9]: 0/23

ARQKQKHPKKVKQAFNPLI [50.1e, extension of p50.10 by the addition of several amino and carboxy-terminal amino acids]
ELISA result, peptides with and without extensions ([3]; sample no. 2241): >2 | ELISA result, peptides with and without extensions ([3]; sample no. 12498): 0.946 | ELISA result, peptides with and without extensions ([3]; sample no. 12836): 1.718

QNSETFTETWNRFITHTEHVD [17.1e, extension of p17.1 by the addition of several amino and carboxy-terminal amino acids]
ELISA result, peptides with and without extensions ([3]; sample no. 2241): 1.277 | ELISA result, peptides with and without extensions ([3]; sample no. 12498): 0.502 | ELISA result, peptides with and without extensions ([3]; sample no. 12836): 1.257
